Measured values reported in ChEMBL document CHEMBL3352059, “Neuroprotective effects of a brain permeant 6-aminoquinoxaline derivative in cell culture conditions that model the loss of dopaminergic neurons in Parkinson disease” (Eur J Med Chem, 2015).
pIC50: −log10 of the molar value. Converted amounts (≈) assume the structure as drawn. The source made the active and inactive calls. No cut-off for these calls is given here.

How the values were obtained:
Rattus norvegicus [1] = species on record: Rattus norvegicus; assay: Neuroprotective effect in Sprague-Dawley rat DA neurons after 10 days by immunofluorescence assay; assay type: functional
Rattus norvegicus [2] = species on record: Rattus norvegicus; assay: Neuroprotective effect in Sprague-Dawley rat DA neurons assessed as [3H]-DA uptake after 10 days by liquid scintillation spectrometry relative to control; assay type: functional
Rattus norvegicus [3] = species on record: Rattus norvegicus; assay: Neuroprotective effect in Sprague-Dawley rat DA neurons assessed as developement of neuritic network after 10 days by microscopic analysis relative to control; assay type: functional
[4] = Antioxidant activity assessed as radical scavenging activity after 1 hr by ABTS competition assay; assay type: physicochemical
Rattus norvegicus [5] = species on record: Rattus norvegicus; assay: Neuroprotective effect in Sprague-Dawley rat DA neurons at 10 uM under chronic oxidative stress condition; assay type: functional
Mus musculus [6] = assay: Toxicity in C57BL/6J mouse assessed as change in body weight at 150 mg/kg, po bid administered for 4 days followed by single dose on day 5 […]; assay type: organism-based; parameters: dose 150 mg/kg, route oral; settings: in vivo, 96 h
Mus musculus [7] = assay: Toxicity in C57BL/6J mouse assessed as change in food intake at 150 mg/kg, po bid administered for 4 days followed by single dose on day 5 […]; assay type: organism-based; parameters: dose 150 mg/kg, route oral; settings: in vivo, 96 h
Mus musculus [8] = assay: Toxicity in C57BL/6J mouse assessed as behavioral change at 150 mg/kg, po bid administered for 4 days followed by single dose on day 5 […]; assay type: organism-based; parameters: dose 150 mg/kg, route oral; settings: in vivo, 96 h
Rattus norvegicus [9] = species on record: Rattus norvegicus; assay: Neuroprotective effect in Sprague-Dawley rat DA neurons at 100 uM after 10 days by immunofluorescence assay; assay type: functional
Rattus norvegicus [10] = species on record: Rattus norvegicus; assay: Neuroprotective effect in Sprague-Dawley rat DA neurons assessed as [3H]-DA uptake at 100 uM after 10 days by liquid scintillation spectrometry relative to control; assay type: functional
[11] = Ratio of drug uptake from brain to plasma in C57BL/6J mouse at 150 mg/kg, po bid administered for 4 days followed by single dose on day 5 measured 1 hr post last dose; assay type: ADME, organism-based; parameters: dose 150 mg/kg, route oral; settings: read-out: BPR
Rattus norvegicus [12] = species on record: Rattus norvegicus; assay: Antiproliferative activity at Sprague-Dawley rat DA neurons assessed as reduction of [3H]-thymidine incorporation at 50 to 100 uM after 8 days by liquid scintillation spectrometry; assay type: functional
Nucleic Acid = assay: Ratio of drug uptake in C57BL/6J mouse striatum to cortical area at 75 mg/kg, po after 1 hr by MALDI-TOF mass spectrometry; assay type: ADME, organism-based; parameters: dose 75 mg/kg, route oral; settings: in vivo
Rattus norvegicus [13] = species on record: Rattus norvegicus; assay: Neuroprotective effect in Sprague-Dawley rat DA neurons at 100 uM in presence of anti-GDNF antibody AB-212-NA; assay type: functional
Rattus norvegicus [14] = species on record: Rattus norvegicus; assay: Neuroprotective effect in Sprague-Dawley rat DA neurons under chronic oxidative stress condition; assay type: functional
[15] = Aqueous solubility of the compound at pH 7.4 after 5 mins by HPLC analysis; assay type: physicochemical
[16] = Drug uptake in C57BL/6J mouse ventral mesencephalon at 75 mg/kg, po after 1 hr by MALDI-TOF mass spectrometry; assay type: ADME, organism-based; parameters: dose 75 mg/kg, route oral; settings: in vivo
Brain [17] = assay: Drug uptake in C57BL/6J mouse brain at 75 mg/kg, po after 1 hr by MALDI-TOF mass spectrometry; assay type: ADME, organism-based; parameters: dose 75 mg/kg, route oral; settings: in vivo
Striatum = assay: Drug uptake in C57BL/6J mouse striatum at 75 mg/kg, po after 1 hr by MALDI-TOF mass spectrometry; assay type: ADME, organism-based; parameters: dose 75 mg/kg, route oral; settings: in vivo
Rattus norvegicus [18] = species on record: Rattus norvegicus; assay: Neuroprotective effect in Sprague-Dawley rat DA neurons assessed as developement of neuritic network at 100 uM after 10 days by microscopic analysis relative to control; assay type: functional
Rattus norvegicus [19] = species on record: Rattus norvegicus; assay: Neuroprotective effect in Sprague-Dawley rat DA neurons under GDNF deprived condition at 50 to 100 uM; assay type: functional
Brain [20] = assay: Drug uptake in C57BL/6J mouse brain at 150 mg/kg, po bid administered for 4 days followed by single dose on day 5 measured 1 hr post last dose; assay type: ADME, organism-based; parameters: dose 150 mg/kg, route oral; settings: in vivo
Rattus norvegicus [21] = species on record: Rattus norvegicus; assay: Neuroprotective effect in Sprague-Dawley rat DA neurons at 1 mM after 10 days by immunofluorescence assay; assay type: functional
Rattus norvegicus [22] = species on record: Rattus norvegicus; assay: Antiproliferative activity at Sprague-Dawley rat DA neurons assessed as reduction of [3H]-thymidine incorporation at 1 mM after 8 days by liquid scintillation spectrometry; assay type: functional
Rattus norvegicus [23] = species on record: Rattus norvegicus; assay: Neuroprotective effect in Sprague-Dawley rat DA neurons assessed as developement of neuritic network at 10 uM after 10 days by microscopic analysis relative to control; assay type: functional
Rattus norvegicus [24] = species on record: Rattus norvegicus; assay: Neuroprotective effect in Sprague-Dawley rat DA neurons at 10 uM after 10 days by immunofluorescence assay; assay type: functional
Rattus norvegicus [25] = species on record: Rattus norvegicus; assay: Neuroprotective effect in Sprague-Dawley rat DA neurons assessed as [3H]-DA uptake at 10 uM after 10 days by liquid scintillation spectrometry relative to control; assay type: functional

With `Cc1cnc2cc(N)ccc2n1` the Activity (Rattus norvegicus [1]) was “inactive”, the Activity (Rattus norvegicus [2]) was “inactive” and the Activity (Rattus norvegicus [3]) was “inactive”.

Molecule `Cc1c(C)c2c(c(C)c1O)CCC(C)(C(=O)O)O2` (configuration not stated) [TROLOX] has a pIC50 [4] of 3.57.

In the case of `CC(=O)N(O)CCCCCNC(=O)CCC(=O)N(O)CCCCCNC(=O)CCC(=O)N(O)CCCCCN`, the Activity (Rattus norvegicus [5]) was “Active”.

With `CCCCCCc1nc2ccc(N)cc2nc1CCCC` the Activity (Rattus norvegicus [1]) was “inactive”, the Activity (Rattus norvegicus [2]) was “inactive” and the Activity (Rattus norvegicus [3]) was “inactive”.

For `Cc1nc2ccc(N)cc2nc1-c1ccccc1`, the Activity (Mus musculus [6]) was “Non-toxic”, the Activity (Mus musculus [7]) was “Non-toxic” and the Activity (Mus musculus [8]) was “Non-toxic”. The Activity (Rattus norvegicus [9]) was “Active”, the Activity (Rattus norvegicus [10]) was “Active” and the Kp at 1 h [11] was 1. For the same molecule, the Activity (Rattus norvegicus [12]) was “Active”, the Ratio (Nucleic Acid) was 2.7 and the Activity (Rattus norvegicus [13]) was “Active”. For the same molecule, the Activity (Rattus norvegicus [14]) was “Dose-dependent effect”, the solubility at 5 min [15] was 125 µM (≈ 29.4 µg/mL) and the Drug uptake [16] was “Active”. For the same molecule, the Drug uptake (Brain [17]) was “Active”, the Drug uptake (Striatum) was “Active” and the Activity (Rattus norvegicus [18]) was “Active”. The Activity (Rattus norvegicus [5]) was “Active”, the Activity (Rattus norvegicus [19]) was “Active” and the pIC50 [4] was 3.46. The Drug uptake (Brain [20]) was “Active”.

For `CCCCc1cnc2ccc(N)cc2n1`, the Activity (Rattus norvegicus [1]) was “inactive”, the Activity (Rattus norvegicus [2]) was “inactive” and the Activity (Rattus norvegicus [3]) was “inactive”.

For `Nc1ccc2nccnc2c1`, the Activity (Rattus norvegicus [1]) was “inactive”, the Activity (Rattus norvegicus [2]) was “inactive” and the Activity (Rattus norvegicus [3]) was “inactive”.

In the case of `CCCC(=O)Nc1ncnc2c1ncn2[C@@H]1O[C@@H]2COP(=O)(O)O[C@H]2[C@H]1OC(=O)CCC`, the Activity (Rattus norvegicus [21]) was “Active” and the Activity (Rattus norvegicus [22]) was “Active”.

For `CCCCc1nc2cc(N)ccc2nc1C`, the Activity (Rattus norvegicus [1]) was “inactive”, the Activity (Rattus norvegicus [2]) was “inactive” and the Activity (Rattus norvegicus [3]) was “inactive”.

For `CCCCCCCCCCCCCCCNc1ccc2nc(C)cnc2c1`, the Activity (Rattus norvegicus [23]) was “Active”, the Activity (Rattus norvegicus [24]) was “inactive” and the Activity (Rattus norvegicus [25]) was “Active”. The solubility at 5 min [15] was 5 µM (≈ 1.85 µg/mL).
